Results on four compounds are retold here after PubChem BioAssay AID1745844 (Carcinogenic Potency Database (CPDB), 2022).

Molecules are shown by their SMILES. Activity calls are given as the source filed them. How the calls were made is not given here.

In the data set the test system is rodent lifetime carcinogenesis bioassay, tumor incidence TD50. Put plainly: chronic cancer bioassays in animals – CPDB, compiled studies (AID 1745844).

Consider `NN`, for which the TD50 by setting is: (hamster, strain Syrian Golden, males, inhaled, site: colon, lesion: adenocarcinoma, dosed 52 weeks, study length 104 weeks) 14 mg/kg/day; (hamster, strain Syrian Golden, males, inhaled, site: colon, lesion: leiomyoma, dosed 52 weeks, study length 104 weeks) 70.5 mg/kg/day; (hamster, strain Syrian Golden, males, inhaled, site: colon, lesion: papilloma, dosed 52 weeks, study length 104 weeks) 70.5 mg/kg/day; (hamster, strain Syrian Golden, males, inhaled, site: nasal cavity, lesion: adenomatous polyp, dosed 52 weeks, study length 104 weeks) 4.16 mg/kg/day; (hamster, strain Syrian Golden, males, inhaled, site: stomach, lesion: basal-cell carcinoma, dosed 52 weeks, study length 104 weeks) 37.6 mg/kg/day; (hamster, strain Syrian Golden, males, inhaled, site: thyroid gland, lesion: parafollicular-cell adenoma, dosed 52 weeks, study length 104 weeks) 17.5 mg/kg/day. The TD50 reads like this: (mouse, strain Bor:NMRI, SPF-bred NMRI, females, in drinking water, site: any site (literature study), lesion: benign tumor, dosed 104 weeks, study length 104 weeks) 58.5 mg/kg/day (inactive); (mouse, strain C57BL/6, females, inhaled, site: lung, lesion: adenoma, dosed 52 weeks, study length 117 weeks) 7.78 mg/kg/day; (mouse, strain Swiss, females, by gavage, site: lung, lesion: one or several types, types not named, dosed 40 weeks, study length 55 weeks) 5.67 mg/kg/day; (mouse, strain Swiss, females, in drinking water, site: lung, lesion: adenocarcinoma, dosed 113 weeks, study length 113 weeks) 9 mg/kg/day; (mouse, strain Swiss, females, in drinking water, site: lung, lesion: adenoma, dosed 113 weeks, study length 113 weeks) 2.81 mg/kg/day; (mouse, strain Swiss, females, in drinking water, site: lung, lesion: several types, types named in the paper, dosed 113 weeks, study length 113 weeks) 2.54 mg/kg/day. Moreover, the TD50 by setting is: (mouse, strain Swiss, males, in drinking water, site: all sites, lesion: malignant lymphoma, dosed 113 weeks, study length 113 weeks) 9.52 mg/kg/day; (mouse, strain Swiss, males, in drinking water, site: liver, lesion: several types, types named in the paper, dosed 113 weeks, study length 113 weeks) 29.8 mg/kg/day; (mouse, strain Swiss, males, in drinking water, site: lung, lesion: adenocarcinoma, dosed 113 weeks, study length 113 weeks) 6.19 mg/kg/day; (mouse, strain Swiss, males, in drinking water, site: lung, lesion: adenoma, dosed 113 weeks, study length 113 weeks) 2.77 mg/kg/day; (mouse, strain Swiss, males, in drinking water, site: lung, lesion: several types, types named in the paper, dosed 113 weeks, study length 113 weeks) 2.2 mg/kg/day; (rat, strain Fischer 344, females, inhaled, site: lung, lesion: bronchiolar adenoma, dosed 52 weeks, study length 130 weeks) 26.4 mg/kg/day. In addition, the TD50 is 9.2 mg/kg/day (rat, strain Fischer 344, females, inhaled, site: nasal cavity, lesion: adenocarcinoma, dosed 52 weeks, study length 130 weeks); 0.758 mg/kg/day (rat, strain Fischer 344, females, inhaled, site: nasal cavity, lesion: adenomatous polyp, dosed 52 weeks, study length 130 weeks); 13.1 mg/kg/day (rat, strain Fischer 344, females, inhaled, site: nasal cavity, lesion: squamous-cell carcinoma, dosed 52 weeks, study length 130 weeks); 8.72 mg/kg/day (rat, strain Fischer 344, females, inhaled, site: nasal cavity, lesion: squamous-cell papilloma, dosed 52 weeks, study length 130 weeks); 6.56 mg/kg/day (rat, strain Fischer 344, females, inhaled, site: nasal cavity, lesion: villous polyp, dosed 52 weeks, study length 130 weeks); 6.1 mg/kg/day (rat, strain Fischer 344, males, inhaled, site: lung, lesion: bronchiolar adenoma, dosed 52 weeks, study length 130 weeks). Moreover, the TD50 by setting is: (rat, strain Fischer 344, males, inhaled, site: nasal cavity, lesion: adenomatous polyp, dosed 52 weeks, study length 130 weeks) 0.194 mg/kg/day; (rat, strain Fischer 344, males, inhaled, site: nasal cavity, lesion: squamous-cell carcinoma, dosed 52 weeks, study length 130 weeks) 6.12 mg/kg/day; (rat, strain Fischer 344, males, inhaled, site: nasal cavity, lesion: squamous-cell papilloma, dosed 52 weeks, study length 130 weeks) 6.1 mg/kg/day; (rat, strain Fischer 344, males, inhaled, site: nasal cavity, lesion: villous polyp, dosed 52 weeks, study length 130 weeks) 1.36 mg/kg/day; (rat, strain Fischer 344, males, inhaled, site: thyroid gland, lesion: carcinoma, dosed 52 weeks, study length 130 weeks) 1.6 mg/kg/day; (rat, strain Wistar, females, in drinking water, site: liver, lesion: hepatocellular carcinoma, dosed 157 weeks, study length 157 weeks) 129 mg/kg/day. The TD50 (rat, strain Wistar, females, in drinking water, site: liver, lesion: several types, types named in the paper, dosed 157 weeks, study length 157 weeks) is 41.6 mg/kg/day; the TD50 (rat, strain Wistar, females, in drinking water, site: mammary gland, lesion: malignant tumor, dosed 157 weeks, study length 157 weeks) came out at 1.13 mg/kg/day; the TD50 (rat, strain Wistar, males, in drinking water, site: any site (literature study), lesion: several types, types named in the paper, dosed 157 weeks, study length 157 weeks) is 9.64 mg/kg/day; the TD50 (rat, strain Wistar, males, in drinking water, site: liver, lesion: several types, types named in the paper, dosed 157 weeks, study length 157 weeks) is 43.7 mg/kg/day. Besides, the carcinogen call is “negative (inactive)” (mouse, strain Bor:NMRI, SPF-bred NMRI, females, in drinking water, site: any site (literature study), lesion: malignant tumor, dosed 104 weeks, study length 104 weeks); “negative (inactive)” (mouse, strain Bor:NMRI, SPF-bred NMRI, males, in drinking water, site: any site (literature study), lesion: benign tumor, dosed 104 weeks, study length 104 weeks); “negative (inactive)” (mouse, strain Bor:NMRI, SPF-bred NMRI, males, in drinking water, site: any site (literature study), lesion: malignant tumor, dosed 104 weeks, study length 104 weeks); “positive” (rat, strain Fischer 344, males, inhaled, site: nasal cavity, lesion: adenocarcinoma, dosed 52 weeks, study length 130 weeks).

Take `CCCCCCCCCCCC[N+](C)(C)[O-]`: the carcinogen call (rat, strain Fischer 344, females, in drinking water, site: liver, lesion: neoplastic nodule, dosed 93 weeks, study length 128 weeks) was “negative (inactive)”. Moreover, the TD50 is 519 mg/kg/day (inactive) (rat, strain Fischer 344, males, in drinking water, site: liver, lesion: hepatocellular carcinoma, dosed 93 weeks, study length 128 weeks); 496 mg/kg/day (inactive) (rat, strain Fischer 344, males, in drinking water, site: liver, lesion: neoplastic nodule, dosed 93 weeks, study length 128 weeks); 231 mg/kg/day (inactive) (rat, strain Fischer 344, males, in drinking water, site: liver, lesion: several types, types named in the paper, dosed 93 weeks, study length 128 weeks).

In the case of `CC(=O)Nc1ccc(S(=O)(=O)O)c2cc(S(=O)(=O)O)c(N=Nc3ccc(N=Nc4ccc(S(=O)(=O)O)cc4)c4ccc(S(=O)(=O)O)cc34)c(O)c12`, the carcinogen call is “negative (inactive)” (mouse, strain CFW, females, in feed, site: liver, lesion: one or several types, types not named, dosed 80 weeks, study length 80 weeks); “negative (inactive)” (mouse, strain CFW, females, in feed, site: lung, lesion: adenoma, dosed 80 weeks, study length 80 weeks); “negative (inactive)” (mouse, strain CFW, males, in feed, site: liver, lesion: one or several types, types not named, dosed 80 weeks, study length 80 weeks); “negative (inactive)” (rat, strain CFE, females, in feed, site: liver, lesion: one or several types, types not named, dosed 104 weeks, study length 104 weeks); “negative (inactive)” (rat, strain CFE, males, in feed, site: liver, lesion: one or several types, types not named, dosed 104 weeks, study length 104 weeks). Further, the TD50 (mouse, strain CFW, males, in feed, site: lung, lesion: adenoma, dosed 80 weeks, study length 80 weeks) is 3660 mg/kg/day (inactive).

On to `OC[C@@H](O)[C@H]1O[C@@H]2O[C@H](C(Cl)(Cl)Cl)O[C@@H]2[C@H]1O`, for which the TD50 is, setting by setting: (mouse, strain B6AKF1, females, oral dosing, site: any site (literature study), lesion: several types, types named in the paper, dosed 76 weeks, study length 76 weeks) 17.3 mg/kg/day (inactive); (mouse, strain B6AKF1, females, oral dosing, site: lung, lesion: adenoma, dosed 76 weeks, study length 76 weeks) 19.5 mg/kg/day (inactive); (mouse, strain B6C3F1, males, oral dosing, site: any site (literature study), lesion: several types, types named in the paper, dosed 76 weeks, study length 76 weeks) 4.07 mg/kg/day (inactive); (mouse, strain B6C3F1, males, oral dosing, site: liver, lesion: hepatoma, dosed 76 weeks, study length 76 weeks) 7.27 mg/kg/day (inactive); (mouse, strain B6C3F1, males, oral dosing, site: lung, lesion: adenoma, dosed 76 weeks, study length 76 weeks) 11.2 mg/kg/day (inactive). Further, the carcinogen call is “negative (inactive)” (mouse, strain B6AKF1, females, oral dosing, site: liver, lesion: hepatoma, dosed 76 weeks, study length 76 weeks); “negative (inactive)” (mouse, strain B6AKF1, males, oral dosing, site: any site (literature study), lesion: several types, types named in the paper, dosed 76 weeks, study length 76 weeks); “negative (inactive)” (mouse, strain B6AKF1, males, oral dosing, site: liver, lesion: hepatoma, dosed 76 weeks, study length 76 weeks); “negative (inactive)” (mouse, strain B6AKF1, males, oral dosing, site: lung, lesion: adenoma, dosed 76 weeks, study length 76 weeks); “negative (inactive)” (mouse, strain B6C3F1, females, oral dosing, site: any site (literature study), lesion: one or several types, types not named, dosed 76 weeks, study length 76 weeks); “negative (inactive)” (mouse, strain B6C3F1, females, oral dosing, site: liver, lesion: hepatoma, dosed 76 weeks, study length 76 weeks). In addition, the carcinogen call (mouse, strain B6C3F1, females, oral dosing, site: lung, lesion: several types, types named in the paper, dosed 76 weeks, study length 76 weeks) is “negative (inactive)”.
